Values joined by “and” are separate entries in the source; they are usually repeats but may differ in a detail not shown here. Equal entries are not always repeated. “Also recorded” adds a separate entry of the source. Where two headings read alike, the source gives them in different places.
Tests used:
[1] = test system: Brugia malayi microfilariae (Mf); test: In vitro motility assay on microfilariae; assay type: cell-based; settings: for IC50: read-out: IC50 for Mf in MA
Protocol: (§1) Microfilariae and adult worms were harvested from p.c. of the M. unguiculatus harbouring approximately 5–6 month-old B. malayi infection. The parasites were washed thoroughly with HBSS (pH 7.2) containing antibiotics (penicillin: 100 U/ml; streptomycin: 100 μg/ml) and used for the present study.
(§2) Motility and 3-(4,5-dimethylthiazol-2-yl)-2,5 diphenyltetrazolium bromide (MTT; Sigma-Aldrich, USA) reduction assays that indicate viability of the parasites were used. Test samples and ivermectin (purity 95 %; Sigma-Aldrich, USA) were dissolved in dimethyl sulfoxide (DMSO; Sigma-Aldrich, USA); the final concentration of DMSO in the incubation medium Hanks Balanced Salt Solution (HBSS; Sigma-Aldrich, USA) containing 100 U/ml penicillin and 100 μg/ml streptomycin (Sigma-Aldrich, USA), was kept ≤ 0.1 %. Diethylcarbamazine-citrate (DEC-C; purity 100 %; Sigma-Aldrich, USA) solution was prepared in sterile distilled water. HBSS containing DMSO (≤ 0.1 %) alone was used as negative control.
(§3) In vitro efficacy of the test agents and reference drugs was assessed on mf (40–50 mf/100 μl/well) in a 96-well cell culture plate (Nunc, Denmark) and on adult female worms (1 worm/ml/well) in a 48-well plate (Nunc, Denmark). The assays were run in triplicates.
(§4) Motility assay using mf and adult worms was carried out as described elsewhere. Changes in parasite motility was assessed under a microscope and scored as: 0 = dead (100 %); 1-4 = loss of motility (1 = 75 %; 2 = 50 %; 3 = 25 %; and 4 = no loss of motility). The experiment was repeated twice.
(§5) IC50 and CC50 of the test agents were determined using the method described elsewhere. […] The experiments were repeated twice.
(§6) Data were transferred to a graphic program (MS Excel) and IC50 and CC50 were calculated by linear interpolation between the two concentrations above and below 50 % inhibition.

CC50 cytotoxicity assay = assay type: cell-based, African green monkey; settings: African green monkey
Protocol: (§7) The assay was run in replicates in each of the two independent experiments.
as §6

Brugia malayi [2] = test: B. malayi-M. coucha model (secondary screening, L3 induced infection); assay type: in vivo, Mastomys coucha; settings: for Macrofilaricidal activity (reduction in adult worm recovery over untreated control): DEC-C 50 mg/kg s.c. x 5 days, animals killed day 91 p.i.t.; for Sterile female worms: of surviving female parasites, day 91 p.i.t., control about 28 %; for Course of microfilaraemia: up to day 91 p.i.t.; for Regression line of microfilarial counts against days: trend of post-treatment microfilaraemia in Fig. 5a
Source text: (§8) Meriones unguiculatus bearing intraperitoneally instilled adult worms and M. coucha inoculated with B. malayi L3 and showing microfilaremia in peritoneal cavity on day 3 post adult worm transplantation (p.a.t.) and progressive rise in microfilaraemia in peripheral circulation from day 120–180 post larval inoculation (p.l.i.), were employed as primary and secondary screening models, respectively, for assaying the antifilarial efficacy of the test agents.
(§9) The test agents were pulverised to fine powder and suspended in 1 % gum acacia/0.1 % Tween-80 in sterile distilled water. DEC-C and ivermectin were prepared in distilled water and ≤ 0.1 % Tween-80, respectively. The suspensions/solutions of the agents were prepared daily before administration to the animals.
(§10) Compounds K003 and K004 were given at 100 mg/kg body weight, subcutaneously (s.c.). The reference drugs DEC-C and ivermectin were administered to M. unguiculatus at 25 and 1 mg/kg body weight, respectively, while the M. coucha model received DEC-C at 50 mg/kg, body weight. […] Infected animals treated with vehicle only were used as control.
Mastomys coucha harbouring 5–7 month-old (L3 induced) B. malayi infection and showing progressive rise in microfilaraemia was used as secondary screening model. Mf count was recorded in peripheral blood (10 μl tail blood) just before initiation of the treatment (day 0), on day 7/8 and thereafter at weekly intervals till day 91 p.i.t. The animals were killed on day 91 p.i.t.
(§11) As a standard practice (following an accepted protocol) all the M. unguiculatus and M. coucha treated with test agents and vehicle were observed daily for their general health and behaviour (cage side observations) throughout the course of treatment and thereafter till termination of the experiment.
(§12) Microfilaricidal efficacy of the test agents was evaluated at each time point p.i.t and expressed as percent change in mf count over the pretreatment level.
(§13) Macrofilaricidal/adulticidal efficacy of the agents was assessed by calculating percent reduction in adult worm recovery in treated animals over untreated animals. Embryostatic/embryotoxic effect of agents was assessed by examining the uterine contents of female worms using the method described elsewhere and the percent of sterilised worms was determined from total female worms recovered from the treated and control animals.
Statistical analyses were carried out using GraphPad Prism 3.0 software. Results were expressed as the mean ± standard deviation (S.D.) of data obtained from 4–6 animals in two experiments. The data were analysed by Student’s ‘t’ test and one-way ANOVA followed by Tukey’s multiple comparison test, as appropriate. Differences with P < 0.05 were considered significant. The microfilaricidal efficacy of antifilarials was determined by comparing the slopes of control, K003 and DEC treated groups. The slopes of the regression line were compared by standard procedure.

Brugia malayi [3] = test: B. malayi-M. unguiculatus model (primary screening, intraperitoneal adult worm transplant); assay type: in vivo, Meriones unguiculatus; settings: for Effect on mf in peritoneal cavity / Sterilised female worms (%) (embryostatic activity) / Total worms, % reduction over untreated (macrofilaricidal activity) / Sterilised female worm count / Worms recovered, Total: doses as in Table 2; for Sterilised female worms (%) (embryostatic activity) / Total worms, % reduction over untreated (macrofilaricidal activity) / Sterilised female worm count / Worms recovered, Total / Worms recovered, Female / Worms recovered, Male: day 56 p.i.t.; for Effect on adult worms: ivermectin 1 mg/kg; for Sterilised female worm count / Worms recovered, Total / Worms recovered, Female / Worms recovered, Male: mean ± SD; for Worms recovered, Total: A001: the 5 of 6 animals without worms; for Worms recovered, Female / Worms recovered, Male: x 5 days: A001 500 mg/kg p.o., K003/K004 100, ivermectin 1, DEC-C 25 mg/kg s.c.
Source text: as §8, §9, §10
Male M. unguiculatus 8–10 weeks old (40–45 g) transplanted intraperitoneally with freshly isolated adult worms from B. malayi-infected M. unguiculatus were used for primary screening of test agents. On day 3 p.a.t., the peritoneal fluid was aspirated and checked for the presence of mf. The treatment was started on day 7/8 p.a.t. and continued for 5 consecutive days. On day 7/8 post-initiation of treatment (p.i.t) and thereafter at fortnightly intervals, the peritoneal fluid was examined under microscope to assess the condition of mf. All animals were killed on day 56 p.i.t. and parasites were collected from p.c., counted and examined for their viability and motility under microscope.
as §11, §12, §13

[4] = test system: Brugia malayi adult worms (AW); test: In vitro motility assay on adult female worms; assay type: cell-based; settings: for IC50: read-out: IC50 for AW in MA
Protocol: as §1, §2, §3, §4, §5, §6

[5] = test system: Brugia malayi adult worms (AW); test: MTT reduction assay on adult female worms; assay type: cell-based; settings: for inhibition at 125 µg/mL: Brugia malayi, read-out: Mean % inhibition in MTT reduction by AW
Protocol: as §2, §3
MTT-reduction assay was carried out using adult worms as described elsewhere. The viability of the treated worms was assessed by calculating per cent inhibition in MTT-reduction potential of the treated worms over DMSO treated control parasites. A hundred percent inhibition in motility of female parasites or mf and or ≥ 50 % inhibition in MTT-reduction potential of the treated female parasites were considered to indicate positive antifilarial activity.
as §5

VERO Cell line C1008 = test: CC50 cytotoxicity assay; assay type: cell-based, African green monkey; settings: reference drugs, values in μM
Protocol: as §7, §6

[6] = Brugia malayi, reference drugs, values in μM
[7] = 100 % reduction in motility (death) of microfilariae
[8] = Brugia malayi, 50 % inhibition in motility of microfilariae
[9] = VERO C1008 cells (African green monkey kidney cells), concentration at which 50 % of VERO cells are killed, read-out: CC50
[10] = 100 % reduction in motility (death) of adult worms
[11] = Brugia malayi, 50 % inhibition in motility of adult worms
[12] = over DMSO control, test conc.: 500 μg/ml extract/fractions, 125 μg/ml compounds, 1000 μM DEC, 10/20 μM ivermectin

| Compound | LC100 for Mf in MA ([1]; reference drugs, values in μM) | Macrofilaricidal activity (reduction in adult worm recovery over untreated control) (Brugia malayi [2]) | Sterile female worms (Brugia malayi [2]) | Course of microfilaraemia (Brugia malayi [2]; peripheral blood) | Regression line of microfilarial counts against days (Brugia malayi [2]) | Effect on mf in peritoneal cavity (Brugia malayi [3]) | Sterilised female worms (%) (embryostatic activity) (Brugia malayi [3]) | Total worms, % reduction over untreated (macrofilaricidal activity) (Brugia malayi [3]) | Effect on adult worms (Brugia malayi [3]; DEC-C 25 mg/kg s.c. x 5 days) | Sterilised female worm count (Brugia malayi [3]) | Worms recovered, Total (Brugia malayi [3]) | Worms recovered, Female (Brugia malayi [3]) | Worms recovered, Male (Brugia malayi [3]) | LC100 for AW in MA ([4]; reference drugs, values in μM) | LC100 for Mf in MA [1, 7] | IC50 [1, 8] | CC50 (CC50 cytotoxicity assay; [9]) | LC100 for AW in MA [4, 10] | IC50 [4, 11] | inhibition at 125 µg/mL [5, 12] | also measured |
| --- | --- | --- | --- | --- | --- | --- | --- | --- | --- | --- | --- | --- | --- | --- | --- | --- | --- | --- | --- | --- | --- |
| CCN(CC)C(=O)N1CCN(C)CC1 [DEC-C, Diethylcarbamazine-citrate] | 500 µM | around 26.47% | 20% | gradually increased and relapsed by day 49 p.i.t.; the count further increased rapidly and crossed the pretreatment level by day 56 p.i.t. | -21.04 + 2.95 days | did not affect mf count | (7.86 ± 11.41) % | (22.03) % | mild macrofilaricidal activity | 0.60 ± 0.89 | 9.20 ± 1.48 | 6.60 ± 1.14 | 2.60 ± 0.55 | 1000 µM |  |  |  |  |  |  | IC50 [1, 6]: 297 µM; CC50 (CC50 cytotoxicity assay): 9000 µM; Reduction in microfilarial count on day 7/8 p.i.t. (Brugia malayi [2]; DEC-C 50 mg/kg, peripheral blood): > 80%; Effect on female reproductive potential (Brugia malayi [3]; DEC-C 25 mg/kg s.c. x 5 days): did not affect mf count or female reproductive potential; IC50 [4, 6]: 315 µM |
| C=C1CCC2C(C)(C)CCC[C@@]2(C)C1CC/C(C)=C/C(=O)O (some centres unmarked) [Compound K003, labda-8(20),13-diene-15-oic acid] |  | ~ 54% and 53.94% | > 36% | had more or less no effect on microfilaraemia till day 42 p.i.t., but thereafter microfilaraemia stopped increasing as compared to control; also recorded: stopped any further rise in microfilaraemia after day 42 p.i.t | 183.65 ± 0.82 days | ineffective against mf |  |  |  | 8.00 ± 0.71 | 8.40 ± 1.14 | 8.00 ± 0.71 | 0.40 ± 0.89 |  | 31.25 µg/mL | 18.6 µg/mL | 180 µg/mL | 125 µg/mL | 74.3 µg/mL | > 80% | Reduction in motility of mf ([1]; in vitro): 100%; Reduction in motility of adult worms ([4]; in vitro): 100%; Mean % inhibition in MTT reduction by AW [5, 12]: 82.05% |
| ivermectin | 2.5 µM |  |  |  |  | did not affect mf in p.c. | (44.29 ± 5.15) % | (22.43) % | mild but not statistically significant effect on adult worms | 2.75 ± 0.96 |  | 6.25 ± 1.50 | 2.75 ± 0.96 | 5 µM |  |  |  |  |  |  | IC50 ([1]; reference drugs, values in μM): 1.57 µM; CC50 (VERO Cell line C1008): 250 µM; Sterilised female worms (%) (embryostatic activity) (Brugia malayi [3]; listed as ivermectin): 44%; IC50 ([4]; reference drugs, values in μM): 3.05 µM; Mean % inhibition in MTT reduction by AW [5, 12]: 5.80% |
| CC[C@H](CC[C@@H](C)[C@H]1CC[C@H]2[C@@H]3CC=C4C[C@@H](O)CC[C@]4(C)[C@H]3CC[C@]12C)C(C)C [Compound K002, Beta-sitosterol] |  |  |  |  |  |  |  |  |  |  |  |  |  |  | > 250 µg/mL |  |  | > 250 µg/mL |  |  | IC50 ([1]; Brugia malayi): > 250 µg/mL; IC50 ([4]; Brugia malayi): > 250 µg/mL; inhibition at 125 µg/mL [5]: 38% |
| C=C1CCC2C(C)(C)C(OC(C)=O)CC[C@@]2(C)C1CC/C(C)=C/C(=O)O (some centres unmarked) [Compound K001, 3-Acetoxylabda-8(20),13-diene-15-oic acid] |  |  |  |  |  |  |  |  |  |  |  |  |  |  | 250 µg/mL | 88.4 µg/mL | 697 µg/mL | 62.50 µg/mL | 41.2 µg/mL | 76.9% |  |
